From paper PMC6891666, “Identifying Phlorofucofuroeckol-A as a Dual Inhibitor of Amyloid-β25-35 Self-Aggregation and Insulin Glycation: Elucidation of the Molecular Mechanism of Action” (Marine Drugs, 2019)
Like-named read-outs stand apart in the source and are kept apart here.

Assays:
Aβ25-35 = target: T1, Aβ25-35 (Homo sapiens, UniProt P05067); test: Aβ25-35 self-aggregation assay (thioflavin-T fluorescence); type: biochemical; conditions: for inhibition at 10 µM: read-out: inhibition of Aβ25-35 self-aggregation
T1 construct: Gly1 and Phe1 for insulin) and C-terminals (Met35 for Aβ25-35; purchased Sigma-Aldrich
Method: A monomeric Aβ25-35 solution was prepared using the method of Naldi and coworkers. A 2.5 μL aliquot of various concentrations of the tested phlorotannins in 50 mM phosphate buffer (pH 7.4) with 100 mM NaCl was added to 72.5 μL of Aβ25-35 sample (100 μM), and the mixture was incubated at 4 °C for 1 day. After incubation, 25 μM thioflavin T in 50 mM glycine-NaOH buffer (pH 8.5) was added to the reaction mixture. Fluorescence emission intensity was monitored at 490 nm (λexc = 446 nm) using a fluorescence microplate reader (Gemini XPS, Molecular Devices, Sunnyvale, CA, USA).

bovine insulin [1] = target: T2, bovine insulin (Bos taurus, UniProt P01317); test: D-glucose-induced non-enzymatic insulin glycation assay; type: biochemical
T2 construct: Phe1 and Asn3 in chain B and Ser12, Gln15, Glu17, and Asn18 in chain A of the insulin; purchased Sigma-Aldrich; host or cells: bovine pancreas
Method: (§1) Glycated bovine insulin was observed by fluorescence spectroscopy because AGEs are marked by a typical fluorescence emission at 410 nm (excitation at 320 nm). To verify our experimental condition, we used vanillin as a negative control for D-ribose-induced protein glycation and rutin as a positive control for d-glucose-induced protein glycation.
(§2) The insulin from bovine pancreas was dissolved in third grade distilled water to a concentration of 6 mg/mL and acidified to pH 2.4 using phosphoric acid to produce monomeric insulin. Then the insulin solution was neutralized to pH 7.0 using 10 M NaOH. Non-enzymatic glycation of insulin was initiated by mixing the insulin solution, 0.5 M D-ribose (or 1.5 M D-glucose) in 50 mM NaH2PO4 buffer (pH 7.0), and 10% dimethyl sulfoxide (DMSO) or the test phlorotannins in a 1:8:1 ratio and incubating the mixture at 37 °C for 6 days (2 weeks for D-glucose induced insulin glycation). Vanillin was used as a negative control for D-ribose induced insulin glycation, whereas rutin was used as a positive control for D-glucose induced insulin glycation. After incubation, the reaction mixture was measured at an excitation wavelength of 320 nm and emission wavelength of 410 nm using a fluorescence microplate reader (Gemini XPS).

[2] = tested on: lipid peroxidation in rat brain homogenates; test: Lipid peroxidation (TBARS) assay in whole rat brain homogenates; type: biochemical; conditions: Fe2+-treated rat brain homogenates, MDA level, mean ± SD, n = 3
Method: Whole rat brain homogenates were prepared from freshly killed Sprague Dawley rats (male, 6-months old) and provided by the Aging Tissue Bank of Pusan National University. One g of whole rat brain was homogenized in 10 mL of cold 20 mM sodium phosphate buffer containing 140 mM KCl (pH 7.4) and centrifuged at 1300× g for 15 min.
A TBA reactive species (TBARS) assay was used to evaluate the antioxidant activity of the phlorotannins in the rat brain homogenates. An aliquot of the supernatant fraction of the homogenates was mixed with phlorotannins dissolved in 10% DMSO, freshly prepared ferric sulfate (250 μM), and distilled water in a 10:5:3:12 ratio, and then the reaction mixture was incubated at 37 °C for 1 h. The reaction was completed by adding a color reagent containing 0.8% TBA, 8.1% SDS, and a 7.5% (final concentration) acetic acid-NaOH solution (pH 3.4) in a 2:1:2 ratios. The mixture was boiled in a water bath for 1 h. After cooling, the reaction mixture was mixed with an equal volume of n-butanol and centrifuged at 1300× g for 10 min. The absorbance of the upper layer was measured at 532 nm using a spectrophotometer (Molecular Devices). The formation of TBARS was expressed as MDA nmol/mg protein using 1,1,3,3-tetramethoxypropane as a standard. Trolox was used as a positive control.

[3] = rats, intravenous injection; cited from earlier work
bovine insulin [4] = target: T2, bovine insulin; test: D-ribose-induced non-enzymatic insulin glycation assay; type: biochemical; conditions: for inhibitory activity on D-ribose-induced insulin glycation: at 100 µM
Method: as §1, §2

[5] = design: method as in PMID 30744179; conditions: pharmacokinetic parameter prediction study; cited from earlier work
[6] = at 10 μM, thioflavin-T fluorescence
[7] = thioflavin-T fluorescence, Aβ25-35 100 μM, mean ± SD, n = 3, read-out: IC50 Aβ25-35 Aggregation
[8] = bovine insulin, D-glucose, 2 weeks incubation, mean ± SD, n = 3, read-out: IC50 D-Glucose-Induced Insulin Glycation
[9] = bovine insulin, D-ribose, mean ± SD, n = 3, read-out: IC50 D-Ribose-Induced Insulin Glycation

T2 sequence (P01317 25-54 limits assumed): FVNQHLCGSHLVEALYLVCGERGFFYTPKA
T2 sequence (P01317 85-105 limits assumed): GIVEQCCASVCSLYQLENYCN

SMILES	inhibition at 10 µM (Aβ25-35; [6]) [%]	IC50 (Aβ25-35; [7]) [µM]	IC50 (bovine insulin [1]; [8]) [µM]	EC50 [2] [µM]	IC50 (bovine insulin [4]; [9]) [µM]	also measured
Oc1cc(O)cc(Oc2c(O)cc(O)c3c2Oc2c(O)cc(Oc4c(O)cc(Oc5c(O)cc(O)c6c5Oc5c(O)cc(O)cc5O6)cc4O)cc2O3)c1 [Dieckol, dieckol]	67	7.93 ± 0.16	> 100	13.5 ± 0.38	63.7 ± 3.83	BBB passage [3]: effectively passed the BBB
Oc1cc(O)c2oc3cc(O)c4oc5cc(O)cc(O)c5oc4c3oc2c1 [Dioxinodehydroeckol, dioxinodehydroeckol]				12.4 ± 1.5		IC50 (Aβ25-35): 8.31 ± 0.23 µM; inhibition at 10 µM (Aβ25-35): 66.1%; IC50 (bovine insulin [1]): > 100 µM; IC50 (bovine insulin [4]): > 100 µM; inhibitory activity on D-ribose-induced insulin glycation (bovine insulin [4]): weak or no inhibitory activity
Oc1cc(O)cc(Oc2c(O)cc(O)c3c2Oc2c(O)cc(O)cc2O3)c1 [Eckol, eckol]	34.5	34.4 ± 1.11	> 100	38.6 ± 1.16	259 ± 10.8	CNS penetration [5]: penetrates the CNS moderately
Oc1cc(O)cc(Oc2c(O)cc(O)c3c2Oc2c(O)cc4oc5c(Oc6cc(O)cc(O)c6)c(O)cc(O)c5c4c2O3)c1 [Phlorofucofuroeckol-A, phlorofucofuroeckol-A]	80	6.18 ± 0.18	43.5 ± 2.38	11 ± 0.16	29.5 ± 0.53	
Oc1cc(O)cc(O)c1 [Phloroglucinol, phloroglucinol]		> 100	> 100	> 75	> 100	inhibitory effect on Aβ25-35 self-aggregation (Aβ25-35; at 50 μM): no inhibitory effect; inhibition at 100 µM (bovine insulin [1]; at 100 µM): 40%; inhibitory activity on D-ribose-induced insulin glycation (bovine insulin [4]): weak or no inhibitory activity
C[C@@H]1O[C@@H](OC[C@H]2O[C@@H](Oc3c(-c4ccc(O)c(O)c4)oc4cc(O)cc(O)c4c3=O)[C@H](O)[C@@H](O)[C@@H]2O)[C@H](O)[C@H](O)[C@H]1O [Rutin, rutin, reference compound]			5.19 ± 1.35			
Cc1c(C)c2c(c(C)c1O)CCC(C)(C(=O)O)O2 (stereo not shown) [Trolox, reference compound]				49 ± 3.5		
COc1cc(C=O)ccc1O [Vanillin, vanillin, reference compound]					> 500	activity on D-ribose-induced insulin glycation (bovine insulin [4]; at 500 µM, negative control): no activity
